Results on 1 compound are retold here after US7419788B2, “Method for screening anti-bacterial agents” (priority 2001, dated 2008).

This experiment addresses T1, transpeptidase enzyme (PBP1b) (Escherichia coli, UniProt P02919).
T1 construct: the ponB gene encoding PBP1b is overexpressed since the strain contains a plasmid comprising a further copy of ponB under the control of its native promoter; made in house; host or cells: Escherichia coli AMA1004 ΔponA; pBS96 (membranes solubilised with 1% CHAPS and 1M NaCl; supernatant used)
The experiment in a line: Scintillation proximity assay for formation of radiolabelled cross-linked peptidoglycan (transpeptidase inhibition). Format: biochemical. The protocol:
4 mg of Escherichia coli AMA1004 cell membranes prepared as described in WO 99/60155 were incubated with 5 ml of 100 mM ampicillin in 50 mM Tris HCl buffer pH 7.5 and 0.1 mM MgCl2 for 30 minutes at room temperature. The membranes were sedimented by centrifugation at 150,000×g for 15 minutes and then washed three times. They were finally resuspended in 1 ml of 50 mM Tris HCl buffer and 0.1 mM MgCl2. […]
The membranes of this E. coli strain were prepared as described in WO 99/60155. They were then treated with a detergent, 1% (3-[(3-cholamidopropyl)dimethylammonio]-1-propane-sulphonate (CHAPS), and 1M NaCl at a protein concentration of 5 mg/ml for 1 hour at room temperature. The mixture was then centrifuged at 150,000×g for 15 minutes in a Beckman table top ultracentrifuge and the supernatant containing PBP1b collected. The quantity of PBP1b protein used was the “soluble fraction” equivalent to 5 μg of starting membrane. […]
The microtitre plate was left for 3 to 10 hours at room temperature before being counted in the “Microbeta Trilux” counter. […]
Table 1 below enumerates the inhibitory effects of penicillin G on the transpeptidase enzyme (after subtracting the corresponding 0% reaction readings).

T1 sequence (P02919 whole entry): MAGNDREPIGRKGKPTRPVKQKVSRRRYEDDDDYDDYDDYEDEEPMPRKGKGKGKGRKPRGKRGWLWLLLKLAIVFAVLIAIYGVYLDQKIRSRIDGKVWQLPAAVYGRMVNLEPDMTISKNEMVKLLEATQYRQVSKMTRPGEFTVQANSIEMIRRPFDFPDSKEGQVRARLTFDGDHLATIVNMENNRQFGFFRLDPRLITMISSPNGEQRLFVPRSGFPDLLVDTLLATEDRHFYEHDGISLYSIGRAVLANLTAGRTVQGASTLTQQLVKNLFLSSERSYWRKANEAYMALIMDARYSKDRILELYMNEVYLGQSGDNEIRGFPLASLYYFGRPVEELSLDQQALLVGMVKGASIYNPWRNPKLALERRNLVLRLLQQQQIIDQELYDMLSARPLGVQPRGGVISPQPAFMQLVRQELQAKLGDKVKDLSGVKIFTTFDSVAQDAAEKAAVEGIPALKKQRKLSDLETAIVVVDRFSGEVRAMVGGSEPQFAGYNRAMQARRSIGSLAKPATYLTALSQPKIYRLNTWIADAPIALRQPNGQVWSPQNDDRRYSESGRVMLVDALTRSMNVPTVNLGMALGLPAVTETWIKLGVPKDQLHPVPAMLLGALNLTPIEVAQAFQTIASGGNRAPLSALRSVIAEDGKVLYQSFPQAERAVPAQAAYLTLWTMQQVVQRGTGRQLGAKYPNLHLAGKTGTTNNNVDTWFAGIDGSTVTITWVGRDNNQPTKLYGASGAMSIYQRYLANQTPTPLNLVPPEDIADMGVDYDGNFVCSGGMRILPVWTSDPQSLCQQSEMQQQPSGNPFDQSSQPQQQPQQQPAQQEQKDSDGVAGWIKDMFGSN

`CC1(C)S[C@@H]2[C@H](NC(=O)Cc3ccccc3)C(=O)N2[C@H]1C(=O)O` [Penicillin G, penicillin G] came in with a Counts per minute (after subtracting the corresponding 0% reaction readings, PBP1b extract from E. coli AMA1004 ΔponA, pBS96, ampicillin-treated AMA1004 membranes, 37° C. for 15 minutes) of 319. In addition, the “% Inhibition” value (inhibitory effect on the transpeptidase enzyme, relative to wells with no test compound (100% reaction controls), test concentration not given) is on record as 94%.
